Source: patent US20230285516A1 (priority 2020, published 2023)
“Also recorded” adds a separate entry of the source.

Columns and labels:
TNF-α [1] = test: TNF-α in co-culture supernatants (ELISA); type: cell-based, human; settings: RA or OA co-cultures, day 7 of culture
Protocol: (§1) Cartilage and synovium co-cultures were performed from 9 patients with RA and 8 patients with OA who underwent hip or knee replacement (Table 1). Joint tissue was cultured with (a) RPMI (control), (b) 1% type I polymerized collagen, for 7 days. The supernatants and tissues of days 1 and 7 were […] collected. In the culture supernatants the concentration of IL-1β, IL-8, IL-10, IL-12, TNF-α and IFN-γ was quantified by ELISA and the results were normalized with total protein concentration. The expression of IL-1β and TNF-α was evaluated using histochemistry.
FIG. 4. Effect of type I polymerized collagen on TNF-α expression in supernatants of cartilage and synovial tissue co-cultures from patients with rheumatoid arthritis (RA) or osteoarthritis (OA). The data represent the mean±SD of 9 co-cultures of cartilage and synovium from patients with RA and of 8 co-cultures of patients with OA. Each culture was performed in triplicate for each condition. The results were normalized with the total protein concentration of the supernatant, determined by the Folin-Löwry micromethod. AR: left panel. OA: panel on the right. Basal: tissue in basal conditions. […] No detectable levels of IL-12 and IFN-γ were determined in the cultures.

Foxp3 = Foxp3 gene expression in co-cultured tissues (RT-PCR); type: cell-based, human; settings: vs control
Text: (§2) FIG. 7. Effect of type I polymerized collagen on the gene expression of pro- and anti-inflammatory cytokines and factors in the tissues of cartilage and synovial tissue co-cultures of patients with rheumatoid arthritis (RA). (A) Quantification of TNF-α, IL-6 and IL-10 gene expression and (B) Quantification of IL-23 and Foxp3 gene expression by RT-PCR in synovial membrane tissues and cartilage co-cultured for 7 days. The bars show the mean±SD of the transcript levels of the samples normalized through the expression of the housekeeping gene GADPH determined by 2ΔΔCt. The data represent the mean±SD of 9 cartilage and synovial co-cultures from RA patients. Each culture was performed in triplicate for each condition. Basal: tissue in basal conditions.
(§3) FIG. 8. Effect of type I polymerized collagen on the gene expression of pro- and anti-inflammatory cytokines and factors in the tissues of cartilage and synovial co-cultures of patients with Osteoarthritis (OA). (A) Quantification of IL-1β, INF-α, IL-6 and IL-10 gene expression, (B) IL-23 and Foxp3 by RT-PCR in co-cultured cartilage and synovial membrane tissues for 7 days. The bars show the mean±SD of the transcript levels of the samples normalized through the expression of the housekeeping gene GADPH determined by 2ΔΔCt. The data represent the mean±SD of 8 co-cultures from patients with OA. […]

IL-8 = IL-8 in co-culture supernatants (ELISA); type: cell-based, human; settings: tissue co-cultures from RA patients
Protocol: as §1
(§4) FIG. 5. Effect of type I polymerized collagen on IL-8 expression in supernatants of cartilage and synovial tissue co-cultures from patients with rheumatoid arthritis (RA) or osteoarthritis (OA). The data represent the mean±SD of 9 co-cultures of cartilage and synovium from patients with RA and of 8 co-cultures of patients with OA. Each culture was performed in triplicate for each condition. The results were normalized with the total protein concentration of the supernatant, determined by the Folin-Löwry micromethod. AR: left panel. OA: panel on the right. Basal: tissue in basal conditions.

mice with CIA = test: Histopathological analysis of hind legs, collagen-induced arthritis (CIA) models; type: in vivo; settings: H&E and PAS, intramuscular weekly for 6 weeks
Protocol: Early Arthritis Model. Fifty mice with the same characteristics were immunized at the base of the tail with 100 μg of chicken type II collagen emulsified in complete Freund's adjuvant. The boost was applied on day 21 at the base of the tail with 100 μg of type II collagen emulsified with Freund's incomplete adjuvant. On the same boosting day, the treatments (a-d) were applied every week for six weeks. Three animals were euthanized in the sixth week and three in the thirteenth week. The spleen, lymph nodes, joint tissue, liver, lungs, kidneys and heart were obtained in order to assess the inflammatory infiltrate, the predominant cell populations and the expression of pro- and anti-inflammatory cytokines.
Established Arthritis Model. Arthritis was induced as in the previous model in 50 mice and the treatments were applied intramuscularly, after 2 weeks of the boost, every week for 6 weeks. Three animals were euthanized in the eighth week and three in the fifteenth week. The spleen, lymph nodes, joint tissue, liver, lungs, kidneys and heart were obtained in order to assess the inflammatory infiltrate, the predominant cell populations and the expression of pro- and anti-inflammatory cytokines.
Histological evaluation. The inflammatory infiltrate and tissue architecture were evaluated by H&E and Masson's trichrome staining and the content of proteoglycans, with the PAS technique. […]

TNF-α [2] = test: TNF-α gene expression in co-cultured tissues (RT-PCR); type: cell-based, human; settings: vs control
Text: as §2, §3

IL-10 = IL-10 in co-culture supernatants (ELISA); type: cell-based, human; settings: RA or OA co-cultures, day 7 vs. day 1 of culture
Protocol: as §1
as §4, with “6.” for “5.”, “IL-10” for “IL-8”, “Folin-Lowry” for “Folin-Löwry”

[3] = Adverse events in the mouse study; type: in vivo, mice; settings: after injection, throughout the study
Protocol: There was no evidence of adverse events after injection of placebo or the different treatments throughout the study. The only adverse event observed was pain lasting less than 15 minutes at the injection site.

[4] = co-cultures from patients with OA
[5] = co-cultures from patients with RA

collagen-polyvinylpyrrolidone [type I polymerized collagen]
expression of TNF-α vs. the controls in the supernatants (TNF-α [1]): decreased | gene expression of Foxp3 (Foxp3; [4]): positive regulation | transcription of FOXP3 gene (Foxp3; [5]): positively | concentration of IL-8 in the supernatants of the co-cultures (IL-8): greatest decrease | histopathology of joint tissue (inflammation, tissue architecture) (mice with CIA): decreased the degree of inflammation and preserved the joint structure; also recorded: maintained a tissue architecture similar to normal | gene expression of TNF-α (TNF-α [2]; [4]): negative regulation | transcription of TNF-α gene (TNF-α [2]; [5]): negatively regulated | increase of IL-10 concentration in the supernatants (IL-10): ≥ 10 times | adverse events [3]: no adverse effects
